{"source": "patent US8039464B2", "about": "“Muscarinic antagonists with PARP and SIR modulating activity as agents for inflammatory diseases” (ProteoSys AG, priority 2004, dated 2011)", "key": {"[1]": {"tested_on": "D3 embryonic stem (ES) cells, neurons", "test": "Cell culture model for chemical ischemia and neuroprotection (calcium imaging)", "assay_type": "cell-based, mice", "description": "For all experiments, D3 embryonic stem (ES) cells derived from 129/sv mice [Okabe et al., 1996] were cultivated for 12 days, with passages on days 2, 4, 7 and 9 as described previously [Sommer et al., 2004]. Insult conditions: Cells (24-well plates) were pre-incubated with or without 20 nM EPO in fresh medium for 24 hours at 37° C. Cells were rinsed once with low K^+ solution (140 mM NaCl, 4.7 mM KCl, 1.2 mM KH2PO4, 2.5 mM CaCl2, 1.2 mM MgSO4, 11 mM glucose, 15 mM Hepes-NaOH, pH 7.35). Cells (either with or without EPO pre-incubation) were incubated for up to 45 min (37° C.) with either low K^+ solution or with glucose-free low K^+ solution supplemented with 1 mM KCN (chemical ischemia solution [Kume et al., 2002]). Vitality control to asses numbers of surviving neurons was performed by a brief stimulation with a low dose of glutamate (10 μM). Afterwards, cells were washed three times with ice cold phosphate buffered saline (PBS), and then proteins were harvested. Suspended cells were pelleted at 500×G, and lysed into 9M urea 4% CHAPS. The cell lysate was desalted with a NAP-10 column (Amersham Biosciences), preequilibrated with the same buffer, and protein content was determined.\nFunctional tests by calcium imaging were performed essentially as described [Sommer et al., 2004]. Briefly, cells were loaded with 2 μM of […] in DMEM for 45 min at 37° C. in the dark. Measurements of relative changes in [Ca^2+] were made on an inverted epifluorescence microscope (Olympus IX70 S1F2) with a Polychrom IV Monochromator (Xe-lamp, USHIO). Excitation wavelengths (λ1, λ2) and the emission wavelength were 340, 380 and 510 nm, respectively. Acquisition and analysis of data after appropriate stimulation were performed by using MetaFluor software (Universal Imaging Corporation). Image resolution was 168×129 pixels (binning 8×8, pixel size 6.8×6.8 μm). Only cells identified as neurons by morphological criteria and occasional immunostaining (not shown) and those whose calcium levels returned to the resting state after the first stimulation were taken into account. Controls included nominal zero calcium (negative) and 5 μM ionomycin (positive), 10 μM glutamate (positive) and depolarisation (55 mM K+) (positive). Pharmacological agents were applied by a multi-valve, single-output focal drug application device (ALA Scientific) with the perfusion system DAD-12. […] During each stimulation event 20 image pairs were acquired."}, "iNOS and Cox-2": {"tested_on": "iNOS and Cox-2", "test": "Cox-2 and iNOS expression after LPS challenge (Western blot)", "assay_type": "cell-based", "details": "LPS 100 ng/ml for 60 min", "description": "(§1) Cell pellets were further investigated by Western blot staining with anti Cox-2 and anti iNOS antibodies of 1D polyacrylamide gels.\n(§2) Cell survival was assessed by Trypan Blue staining."}, "A 549 cells": {"tested_on": "A 549 cells", "test": "LPS challenge, cell survival by Trypan Blue", "assay_type": "cell-based", "details": "LPS 100 ng/ml for 60 min", "description": "as §1, §2"}, "3T3 fibroblasts": {"tested_on": "3T3 fibroblasts", "test": "LPS challenge, cell survival by Trypan Blue", "assay_type": "cell-based", "details": "LPS 100 ng/ml for 60 min", "description": "as §1, §2"}, "[2]": {"tested_on": "undifferentiated V56 embryonic stem cells", "test": "LPS challenge, cell survival by Trypan Blue", "assay_type": "cell-based", "details": "LPS 100 ng/ml for 60 min", "description": "as §1, §2"}, "[3]": {"tested_on": "neurally differentiated V56 embryonic stem cells", "test": "LPS challenge, cell survival by Trypan Blue", "assay_type": "cell-based", "details": "LPS 100 ng/ml for 60 min", "description": "as §1, §2"}, "PARP-1 [4]": {"molecular_target": "T1, PARP-1 (Homo sapiens, UniProt P09874)", "T1 construct": "purchased R&D Systems TA4669", "T1 sequence (P09874 whole entry)": "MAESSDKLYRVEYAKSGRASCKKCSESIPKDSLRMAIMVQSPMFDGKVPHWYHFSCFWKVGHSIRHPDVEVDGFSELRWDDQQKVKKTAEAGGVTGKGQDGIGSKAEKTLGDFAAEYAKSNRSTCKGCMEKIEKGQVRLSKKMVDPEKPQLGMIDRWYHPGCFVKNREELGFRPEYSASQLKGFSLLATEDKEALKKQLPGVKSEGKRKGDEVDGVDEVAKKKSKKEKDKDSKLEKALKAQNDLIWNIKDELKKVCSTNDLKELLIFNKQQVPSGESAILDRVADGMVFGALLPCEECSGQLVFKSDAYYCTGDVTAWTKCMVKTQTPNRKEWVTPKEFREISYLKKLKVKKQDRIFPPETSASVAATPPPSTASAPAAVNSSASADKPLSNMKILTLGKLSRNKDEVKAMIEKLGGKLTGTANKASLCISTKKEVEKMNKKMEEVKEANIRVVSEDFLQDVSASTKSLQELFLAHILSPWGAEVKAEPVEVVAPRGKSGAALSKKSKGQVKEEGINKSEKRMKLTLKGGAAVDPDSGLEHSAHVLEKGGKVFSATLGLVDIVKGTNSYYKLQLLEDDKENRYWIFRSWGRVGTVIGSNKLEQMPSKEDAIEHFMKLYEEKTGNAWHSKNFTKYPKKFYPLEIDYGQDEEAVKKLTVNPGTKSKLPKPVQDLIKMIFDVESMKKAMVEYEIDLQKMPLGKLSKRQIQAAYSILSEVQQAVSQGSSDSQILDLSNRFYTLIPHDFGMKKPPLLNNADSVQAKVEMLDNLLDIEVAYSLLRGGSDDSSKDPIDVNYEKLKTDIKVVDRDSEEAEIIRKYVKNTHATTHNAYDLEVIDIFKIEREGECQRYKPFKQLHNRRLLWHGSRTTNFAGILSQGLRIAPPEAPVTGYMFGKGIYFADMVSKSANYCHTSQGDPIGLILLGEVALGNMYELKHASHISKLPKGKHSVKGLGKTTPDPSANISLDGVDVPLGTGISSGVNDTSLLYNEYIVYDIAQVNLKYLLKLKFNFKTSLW", "test": "PARP inhibition assay (R&D Systems, Cat. No. TA4669)", "assay_type": "biochemical", "details": "for IC50: R&D assay, recombinant monomeric PARP-1, read-out: IC50 PARP-1 inhibition", "description": "A PARP inhibition assay from R&D Systems was used (Cat. No. TA4669) according to instructions of the supplier.\nUnder cellular conditions PARP-1 poly-ADP-ribosylates a host of nuclear proteins, including topoisomerase 1, 14-3-3 g and PARP-1 itself. Thus under cellular conditions, the self-modification of PARP-1 and dimerization are regulating its activity, moreover there is a tight interplay with PARG (poly-ADP-ribosyl-glycohydroxylase)."}, "[5]": {"test": "Blood-brain-barrier passage: HPLC of plasma and CSF", "details": "rat, in vivo", "description": "J. Gastroenterol. 66, 35ff.; Homon et al., 1987, Therapeutic Drug Monitoring 9, 236ff.)."}, "SIR-2 [6]": {"molecular_target": "T2, SIR-2 (Mus musculus, UniProt Q923E4)", "T2 construct": "Using a raw extract from murine embryonic stem cells; host or cells: murine embryonic stem cells (raw extract)", "T2 sequence (Q923E4 2-737 limits assumed)": "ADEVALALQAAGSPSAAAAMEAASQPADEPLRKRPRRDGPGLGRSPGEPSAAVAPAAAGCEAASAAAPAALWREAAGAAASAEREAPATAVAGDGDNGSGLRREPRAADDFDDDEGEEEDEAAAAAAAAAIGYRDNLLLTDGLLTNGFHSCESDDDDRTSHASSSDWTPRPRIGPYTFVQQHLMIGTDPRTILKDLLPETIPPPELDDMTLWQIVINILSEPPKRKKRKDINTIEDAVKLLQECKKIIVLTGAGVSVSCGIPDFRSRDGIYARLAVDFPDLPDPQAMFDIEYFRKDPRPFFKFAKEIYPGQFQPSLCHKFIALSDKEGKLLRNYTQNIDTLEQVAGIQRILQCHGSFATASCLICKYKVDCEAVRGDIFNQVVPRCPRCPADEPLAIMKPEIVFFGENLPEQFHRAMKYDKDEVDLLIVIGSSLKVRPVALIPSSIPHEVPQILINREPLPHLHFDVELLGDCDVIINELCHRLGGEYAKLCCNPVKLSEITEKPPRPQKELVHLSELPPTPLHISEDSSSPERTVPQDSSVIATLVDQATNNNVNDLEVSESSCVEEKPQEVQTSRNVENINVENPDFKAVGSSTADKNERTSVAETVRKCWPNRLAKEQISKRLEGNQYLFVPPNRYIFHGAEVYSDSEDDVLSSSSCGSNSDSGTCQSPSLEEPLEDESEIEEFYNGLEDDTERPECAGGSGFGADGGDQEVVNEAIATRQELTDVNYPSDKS", "test": "SIR2 activity assay (CycLex SIR2 Assay kit)", "assay_type": "biochemical, murine", "details": "control; read-out: IC50 SIR-2 inhibition", "description": "For measurements of SIR2 activities, the quantitative test kit for NAD-dependent histone deacetylase activity CycLex® SIR2 Assay kit (Cat# CY-1151) was used according to instructions of manufacturer (CycLex Co., Ltd. 1063-103 Ohara, Tera-Sawaoka Ina, Nagano 396-0002 Japan). All substances tested in the SIR assay were cross-checked for their influence on the lysyl-endopeptidase. For this control an already deacetylated substrate peptide was used in order to measure directly lysyl-endopeptidase activity.\nFor measurements of SIR2 activities, the quantitative test kit for NAD-dependent histone deacetylase activity CycLex® SIR2 Assay kit (Cat# CY-1151) was used according to instructions of manufacturer (CycLex Co., Ltd. 1063-103 Ohara, Tera-Sawaoka Ina, Nagano 396-0002 Japan)."}, "PARP-1 [7]": {"tested_on": "PARP-1", "sequence (P11103 215-1013 limits assumed)": "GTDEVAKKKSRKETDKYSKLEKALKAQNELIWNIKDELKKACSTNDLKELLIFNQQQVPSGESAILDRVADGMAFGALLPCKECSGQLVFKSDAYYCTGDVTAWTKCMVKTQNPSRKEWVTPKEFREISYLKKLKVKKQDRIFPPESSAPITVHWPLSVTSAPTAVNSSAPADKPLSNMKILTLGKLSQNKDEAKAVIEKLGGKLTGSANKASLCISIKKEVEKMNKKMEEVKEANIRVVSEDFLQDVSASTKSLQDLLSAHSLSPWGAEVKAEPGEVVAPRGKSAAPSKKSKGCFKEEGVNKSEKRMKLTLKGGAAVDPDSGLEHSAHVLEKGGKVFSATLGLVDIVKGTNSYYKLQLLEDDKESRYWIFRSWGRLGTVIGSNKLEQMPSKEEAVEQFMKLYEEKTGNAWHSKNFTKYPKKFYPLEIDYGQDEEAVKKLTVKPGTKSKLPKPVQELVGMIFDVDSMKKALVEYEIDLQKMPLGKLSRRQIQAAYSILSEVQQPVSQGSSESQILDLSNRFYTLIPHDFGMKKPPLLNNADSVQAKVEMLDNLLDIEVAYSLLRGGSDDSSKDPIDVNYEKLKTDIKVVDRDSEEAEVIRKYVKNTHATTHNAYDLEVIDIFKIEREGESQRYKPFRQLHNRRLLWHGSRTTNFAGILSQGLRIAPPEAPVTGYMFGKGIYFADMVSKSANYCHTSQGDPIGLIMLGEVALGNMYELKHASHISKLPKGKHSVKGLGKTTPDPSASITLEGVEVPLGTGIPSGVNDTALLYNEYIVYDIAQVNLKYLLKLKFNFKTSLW", "test": "Affinity enrichment with irreversible pirenzepine affinity tag", "assay_type": "binding, mice", "description": "(§3) A reactive —SCN group is introduced which binds to lysines in or near the binding site of the compound. A biotinylated linker serves for enrichment of bound protein. The synthesis is described in detail co-pending US-application 60/588,354 and 60/620,323 which are herein incorporated by reference. In FIG. 1 a synthesis scheme is depcited. The final product, which was used as affinity reagent is thiocyanato 11-[2-(4-biocytinyl-piperazin-1-yl)-acetyl]-5,11-dihydro-benzo[e]pyrido[3,2-b][1,4]diazepin-6-one, (11).\n(§4) The affinity reagent 11 was used to bind the target covalently from fractionations of crude cell extracts of D3 ES cells and other cell lines, subsequently the affinity purified material was analysed by 1D PAGE, immunostaining, and mass spectrometry.\nThe subsequent fractionation, isolation and further analysis was performed according to published standard procedures (Sommer et al. 2004). A commercial anti-PARP antibody was used for staining Western blots. Mass spectrometry for independent identification of pirenzepine-tagged proteins was performed as described elsewhere recently (Vogt et al., 2003, Cahill et al., 2003).\nA surplus of affinity tag was removed by NAP10 gel filtration. The reaction mixture was bound to streptavidin agarose. Elution occurred with elution buffer (2% SDS, 62.5 mM Tris-pH 6.8) for 10 min at room temperature and 10 min at 95° C. […]"}, "SIR-2 [8]": {"molecular_target": "T3, SIR-2 (Mus musculus, UniProt Q923E4)", "T3 construct": "endogenous in cells; host or cells: V56 / D3 embryonic stem cells, raw extract", "T3 sequence (Q923E4 1-737)": "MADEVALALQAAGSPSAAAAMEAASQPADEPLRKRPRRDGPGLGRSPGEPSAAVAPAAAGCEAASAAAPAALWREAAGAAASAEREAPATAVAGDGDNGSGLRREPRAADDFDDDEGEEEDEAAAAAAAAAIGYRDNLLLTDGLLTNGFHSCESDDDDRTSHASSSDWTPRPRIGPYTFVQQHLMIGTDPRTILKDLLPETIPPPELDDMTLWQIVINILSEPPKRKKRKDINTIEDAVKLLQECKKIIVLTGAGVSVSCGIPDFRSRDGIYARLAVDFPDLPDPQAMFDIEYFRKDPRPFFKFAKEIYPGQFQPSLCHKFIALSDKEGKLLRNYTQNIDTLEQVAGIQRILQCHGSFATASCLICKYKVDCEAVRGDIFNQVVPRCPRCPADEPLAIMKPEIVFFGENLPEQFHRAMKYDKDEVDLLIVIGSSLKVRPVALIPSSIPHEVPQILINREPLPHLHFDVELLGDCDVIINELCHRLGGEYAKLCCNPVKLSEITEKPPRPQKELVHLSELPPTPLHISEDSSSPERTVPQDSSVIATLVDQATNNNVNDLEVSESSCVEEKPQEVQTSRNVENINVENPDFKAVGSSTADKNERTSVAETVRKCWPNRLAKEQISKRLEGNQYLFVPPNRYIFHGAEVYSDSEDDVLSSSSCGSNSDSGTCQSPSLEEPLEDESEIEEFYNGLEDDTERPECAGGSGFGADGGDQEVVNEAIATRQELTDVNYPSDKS", "test": "Affinity enrichment with irreversible pirenzepine affinity tag", "assay_type": "binding", "description": "as §3, §4\nFor SIR-2 staining the following antibodies were used: primary Ab: A-SiR 2 (Upstate, biomol 07-131; Lot:22073); 1:5000 in 5% BSA/1×TBST; secondary Ab: A-Rabbit PE(A-0545) 1:1000 in 5% BSA/1×TBST: […]"}}, "note": "Where two headings read alike, the source gives them in different places.", "data": [{"compound": "CN1CCN(CC(=O)N2c3ccccc3C(=O)Nc3cccnc32)CC1", "note": "[Pirenzepine, 5,11-dihydro-11[(4-methyl-1-piperazinyl)-acetyl]-6H-pyrido-[2,3-b]-[1,4]benzodiazepine-6-one, reference compound]", "values": [{"measurement": "neuroprotective in vitro effect", "setting": "[1]; 1 μM, chemical ischemia", "value": "prevents neuronal death"}, {"measurement": "survival rate", "setting": "[1]; after chemical ischemia, 1 μM Pirenzepine (FIG. 2b)", "value": "72.1±4.4", "unit": "%"}, {"measurement": "neuroprotective effect under raft-disrupting conditions", "setting": "[1]; β-methyl-cyclodextrin or filipin", "value": "does not occur"}, {"measurement": "expression of inducible inflammatory markers iNOS and Cox-2", "setting": "iNOS and Cox-2", "value": "decreased expression"}, {"measurement": "protection from LPS challenge", "setting": "A 549 cells", "value": "protect"}, {"measurement": "protection from LPS challenge", "setting": "3T3 fibroblasts", "value": "protect"}, {"measurement": "protection from LPS challenge", "setting": "[2]", "value": "protect"}, {"measurement": "protection from LPS challenge", "setting": "[3]", "value": "protect"}, {"measurement": "PARP-1 inhibition (in words)", "setting": "PARP-1 [4]", "value": "rather weak PARP-1 inhibitor"}, {"measurement": "IC50", "setting": "PARP-1 [4]", "value": 200, "unit": "µM"}]}, {"compound": "O=C1Nc2cccnc2N(C(=O)CN2CCNCC2)c2ccccc21", "note": "[dm-Pirenzepine, desmethyl-Pirenzepine]", "values": [{"measurement": "passage into the brain", "setting": "[5]", "value": "virtually no passage"}]}, {"compound": "NC(=O)c1cccnc1", "note": "[nicotine amide, reference compound]", "values": [{"measurement": "IC50", "setting": "SIR-2 [6]", "value": "~55", "unit": "µM"}]}, {"compound": "O=c1[nH]c2ccccc2c2ccccc12", "note": "[phenanthridone, reference compound]", "values": [{"measurement": "IC50", "setting": "PARP-1 [4]", "value": 7, "unit": "µM"}]}, {"compound": "thiocyanato 11-[2-(4-biocytinyl-piperazin-1-yl)-acetyl]-5,11-dihydro-benzo[e]pyrido[3,2-b][1,4]diazepin-6-one [pirenzepine-affinity tag]", "values": [{"measurement": "interaction with PARP-1", "setting": "PARP-1 [7]", "value": "interacts"}, {"measurement": "binding to SIR-2", "setting": "SIR-2 [8]", "value": "irreversibly binds"}, {"measurement": "binding to SIR-2", "setting": "SIR-2 [8]; listed as affinity tag", "value": "interacts"}]}]}
